Converted amounts (≈) assume the structure as drawn.
How the values were obtained:
[1] = molecular target: T1, Diacylglycerol O-acyltransferase 1 (Homo sapiens, UniProt O75907); assay: Inhibition of human DGAT1 expressed in yeast membrane fraction assessed as inhibition of triglyceride formation using diolein/oleoyl-CoA as substrate measured after 1 hr by 7-diethylamino-3-(4'-maleimidylphenyl)-4-methylcoumarin based fluorescence analysis; assay type: cell membranes
T1 sequence (O75907 whole entry): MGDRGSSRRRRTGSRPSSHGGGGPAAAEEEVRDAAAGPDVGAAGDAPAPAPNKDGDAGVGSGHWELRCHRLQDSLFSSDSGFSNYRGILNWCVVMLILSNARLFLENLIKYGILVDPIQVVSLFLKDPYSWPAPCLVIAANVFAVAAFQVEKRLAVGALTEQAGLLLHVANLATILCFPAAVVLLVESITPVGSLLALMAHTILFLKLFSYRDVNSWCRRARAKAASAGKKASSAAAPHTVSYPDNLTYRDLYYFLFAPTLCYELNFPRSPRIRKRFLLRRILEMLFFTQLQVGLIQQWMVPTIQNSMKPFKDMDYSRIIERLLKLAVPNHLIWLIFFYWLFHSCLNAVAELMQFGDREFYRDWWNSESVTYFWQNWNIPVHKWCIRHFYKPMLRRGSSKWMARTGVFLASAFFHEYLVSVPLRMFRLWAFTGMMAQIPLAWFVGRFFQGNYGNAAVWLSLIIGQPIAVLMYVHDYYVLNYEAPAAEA

[2] = Solubility of the compound at pH 2; assay type: physicochemical; settings: buffer
[3] = Solubility of the compound at pH 7; assay type: physicochemical; settings: buffer
[4] = Lipophilicity, log D of the compound; assay type: physicochemical; settings: octanol/water
Cytochrome P450 2C9 = Cytochrome P450 2C9 (Homo sapiens, UniProt P11712); assay: Inhibition of CYP2C9 (unknown origin); assay type: ADME
Cytochrome P450 3A4 = Cytochrome P450 3A4 (Homo sapiens, UniProt P08684); assay: Inhibition of CYP3A4 (unknown origin); assay type: ADME
[5] = molecular target: T2, Nuclear receptor subfamily 1 group I member 2 (Homo sapiens, UniProt O75469); assay: Inhibition of PXR (unknown origin); assay type: ADME
T2 sequence (O75469 whole entry): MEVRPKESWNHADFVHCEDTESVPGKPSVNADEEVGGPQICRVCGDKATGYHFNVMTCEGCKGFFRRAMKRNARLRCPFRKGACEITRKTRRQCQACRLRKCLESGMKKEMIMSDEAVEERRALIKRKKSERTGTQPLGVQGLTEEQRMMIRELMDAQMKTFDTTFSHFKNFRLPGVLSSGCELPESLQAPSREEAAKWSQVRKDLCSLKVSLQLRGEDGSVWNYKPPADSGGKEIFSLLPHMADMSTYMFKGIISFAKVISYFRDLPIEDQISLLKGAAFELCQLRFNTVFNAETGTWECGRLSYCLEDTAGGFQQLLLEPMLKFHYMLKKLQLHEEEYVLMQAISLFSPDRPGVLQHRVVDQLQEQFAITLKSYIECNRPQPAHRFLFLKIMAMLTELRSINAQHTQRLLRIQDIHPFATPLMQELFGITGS

[6] = molecular target: Voltage-gated inwardly rectifying potassium channel KCNH2 (Homo sapiens, UniProt Q12809); assay: Inhibition of MK499 binding to human ERG
Mus musculus [7] = assay: Reduction in triglyceride level in mouse plasma at 30 mg/kg, po after 18 hrs by lipid tolerance test; assay type: functional
Mus musculus [8] = assay: Reduction in triglyceride level in mouse plasma at 10 mg/kg,po after 18 hrs by lipid tolerance test; assay type: functional
Rattus norvegicus = assay: Intrinsic clearance Wistar Han rat at 1 mg/kg, iv; assay type: ADME, organism-based; settings: in vivo
[9] = molecular target: T3, Diacylglycerol O-acyltransferase 1 (Mus musculus, UniProt Q9Z2A7); assay: Inhibition of mouse DGAT1 assessed as inhibition of triglyceride formation
T3 sequence (Q9Z2A7 whole entry): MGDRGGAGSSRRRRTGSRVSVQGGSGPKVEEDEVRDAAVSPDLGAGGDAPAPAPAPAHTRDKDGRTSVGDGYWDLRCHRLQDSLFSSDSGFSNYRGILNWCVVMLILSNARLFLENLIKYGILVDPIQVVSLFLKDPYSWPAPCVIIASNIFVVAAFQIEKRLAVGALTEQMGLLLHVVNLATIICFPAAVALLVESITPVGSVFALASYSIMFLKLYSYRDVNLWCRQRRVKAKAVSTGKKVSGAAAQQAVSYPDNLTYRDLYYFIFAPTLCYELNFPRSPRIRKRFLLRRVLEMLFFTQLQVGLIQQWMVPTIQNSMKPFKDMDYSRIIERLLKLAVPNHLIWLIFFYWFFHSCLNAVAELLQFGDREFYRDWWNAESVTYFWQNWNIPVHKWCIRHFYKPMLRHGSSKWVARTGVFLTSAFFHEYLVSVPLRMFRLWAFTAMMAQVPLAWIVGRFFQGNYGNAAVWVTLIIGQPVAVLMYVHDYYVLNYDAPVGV

Cytochrome P450 3A4, sequence (P08684 whole entry): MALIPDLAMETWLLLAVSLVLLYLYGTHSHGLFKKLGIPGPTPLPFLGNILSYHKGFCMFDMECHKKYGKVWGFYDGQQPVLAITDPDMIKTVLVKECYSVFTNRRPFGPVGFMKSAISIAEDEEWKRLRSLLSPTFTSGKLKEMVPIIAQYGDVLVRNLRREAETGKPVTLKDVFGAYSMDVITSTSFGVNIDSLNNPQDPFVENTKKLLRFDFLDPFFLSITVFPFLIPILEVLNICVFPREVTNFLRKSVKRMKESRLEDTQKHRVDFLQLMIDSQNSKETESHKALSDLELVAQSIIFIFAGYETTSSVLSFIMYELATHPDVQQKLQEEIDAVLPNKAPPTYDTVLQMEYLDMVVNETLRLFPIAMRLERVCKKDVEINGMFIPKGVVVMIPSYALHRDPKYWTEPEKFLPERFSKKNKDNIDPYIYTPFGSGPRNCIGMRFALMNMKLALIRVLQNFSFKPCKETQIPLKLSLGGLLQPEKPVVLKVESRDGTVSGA
Voltage-gated inwardly rectifying potassium channel KCNH2, sequence (Q12809 whole entry): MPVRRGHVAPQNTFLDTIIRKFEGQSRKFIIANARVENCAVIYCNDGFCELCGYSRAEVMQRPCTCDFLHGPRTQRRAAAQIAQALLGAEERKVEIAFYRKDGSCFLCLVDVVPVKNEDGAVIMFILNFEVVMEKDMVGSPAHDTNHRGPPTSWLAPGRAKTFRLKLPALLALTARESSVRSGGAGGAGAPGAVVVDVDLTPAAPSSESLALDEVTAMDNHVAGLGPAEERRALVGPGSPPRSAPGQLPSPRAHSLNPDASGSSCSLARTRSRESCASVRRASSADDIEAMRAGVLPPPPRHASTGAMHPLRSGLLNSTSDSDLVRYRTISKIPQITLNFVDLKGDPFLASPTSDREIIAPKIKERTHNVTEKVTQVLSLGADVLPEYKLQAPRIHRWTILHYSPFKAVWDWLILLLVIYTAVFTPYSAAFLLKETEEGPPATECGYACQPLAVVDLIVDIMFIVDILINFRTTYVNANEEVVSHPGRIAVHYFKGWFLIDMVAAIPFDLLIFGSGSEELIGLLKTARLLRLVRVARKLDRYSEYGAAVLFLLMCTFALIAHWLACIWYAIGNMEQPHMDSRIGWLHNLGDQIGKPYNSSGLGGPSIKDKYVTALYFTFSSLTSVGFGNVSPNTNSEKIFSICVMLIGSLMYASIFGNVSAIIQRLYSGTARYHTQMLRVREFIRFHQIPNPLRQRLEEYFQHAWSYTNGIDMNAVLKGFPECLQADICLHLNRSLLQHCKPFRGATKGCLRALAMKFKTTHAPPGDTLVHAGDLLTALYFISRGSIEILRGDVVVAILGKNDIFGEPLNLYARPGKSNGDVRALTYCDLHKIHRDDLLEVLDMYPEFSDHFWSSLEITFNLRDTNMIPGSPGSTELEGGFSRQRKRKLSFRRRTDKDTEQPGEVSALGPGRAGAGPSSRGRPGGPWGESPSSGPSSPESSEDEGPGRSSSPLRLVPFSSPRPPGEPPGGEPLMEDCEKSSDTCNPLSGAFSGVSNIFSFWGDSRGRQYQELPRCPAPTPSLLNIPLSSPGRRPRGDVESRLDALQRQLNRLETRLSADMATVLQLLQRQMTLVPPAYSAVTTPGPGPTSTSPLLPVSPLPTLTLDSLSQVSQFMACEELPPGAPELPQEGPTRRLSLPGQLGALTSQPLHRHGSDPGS
Cytochrome P450 2C9, sequence (P11712 whole entry): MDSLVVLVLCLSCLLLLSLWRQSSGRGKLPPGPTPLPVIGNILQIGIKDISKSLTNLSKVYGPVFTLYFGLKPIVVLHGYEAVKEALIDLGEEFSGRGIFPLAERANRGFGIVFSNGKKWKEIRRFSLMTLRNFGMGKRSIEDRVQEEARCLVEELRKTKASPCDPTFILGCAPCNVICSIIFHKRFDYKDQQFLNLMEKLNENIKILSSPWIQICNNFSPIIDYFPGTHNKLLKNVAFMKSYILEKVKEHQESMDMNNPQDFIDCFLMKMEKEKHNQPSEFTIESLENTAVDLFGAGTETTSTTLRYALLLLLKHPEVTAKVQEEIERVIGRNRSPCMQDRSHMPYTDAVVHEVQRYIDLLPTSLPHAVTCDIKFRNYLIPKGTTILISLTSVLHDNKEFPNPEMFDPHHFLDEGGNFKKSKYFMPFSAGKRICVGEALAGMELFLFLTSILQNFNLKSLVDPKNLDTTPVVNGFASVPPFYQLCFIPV

| SMILES | IC50 [1] [µM] | solubility ([2]; read-out: solubility) [µM] | solubility ([3]; read-out: solubility) [µM] | logD ([4]; read-out: logD) | IC50 (Cytochrome P450 2C9) [µM] | IC50 (Cytochrome P450 3A4) [µM] | IC50 [5] [µM] | IC50 [6] [µM] | other results |
| --- | --- | --- | --- | --- | --- | --- | --- | --- | --- |
| O=C1OC2(CCN(c3ccc(-c4nc5cc(Cl)ccc5[nH]4)cn3)CC2)c2ccccc21 | 0.052 |  |  |  |  |  |  |  |  |
| Clc1ccc2[nH]c(-c3ccc(N4C[C@@H]5C[C@H]4CN5c4ccccc4)nc3)nc2c1 | > 10 |  |  |  |  |  |  |  |  |
| O=C(O)C[C@H]1COC2(CCN(c3ccc(-c4nc5cc(C(F)(F)F)ccc5[nH]4)cn3)CC2)C1 |  | 170 (≈ 78.3 µg/mL) | 153 (≈ 70.4 µg/mL) | 1.45 | > 50 | > 50 | > 30 |  |  |
| FC(F)(F)c1ccc2[nH]c(-c3ccc(N4CCC5(CC4)OC(Cc4cc(Cl)cc(Cl)c4)c4ccccc45)nc3)nc2c1 (stereo unspecified) | 8.7 |  |  |  |  |  |  |  |  |
| O=C(O)CC1CCC2(CCN(c3ccc(-c4nc5cc(C(F)(F)F)ccc5[nH]4)cn3)CC2)O1 (single isomer, unassigned; form 2) |  |  |  |  | 39.5 | > 50 | > 30 | 17.4 | solubility [2]: 163 µM (≈ 75.1 µg/mL); solubility [3]: 147 µM (≈ 67.7 µg/mL); logD [4]: 1.58 |
| O=C1OC2(CCN(c3ccc(-c4nc5cc(Cl)ccc5[nH]4)cn3)CC2)c2ncccc21 | 0.01 | < 10 |  |  | 3.4 |  |  |  |  |
| O=C(O)C[C@@H]1COC2(CCN(c3ccc(-c4nc5cc(C(F)(F)F)ccc5[nH]4)cn3)CC2)C1 |  | 171 (≈ 78.7 µg/mL) | 158 (≈ 72.8 µg/mL) | 1.44 | > 50 | > 50 | > 30 |  | inhibition in vivo at 30 mg/kg (Mus musculus [7]): 54%; inhibition in vivo at 10 mg/kg (Mus musculus [8]): 32% |
| O=C(O)CN1CCC2(CC1)CCN(c1ccc(-c3nc4cc(C(F)(F)F)ccc4[nH]3)cn1)CC2 | > 10 | 207 (≈ 98 µg/mL) | 168 (≈ 79.5 µg/mL) | 1.38 | > 50 | > 50 | > 30 | 4.8 |  |
| O=C(O)CC1CCC2(CCN(c3ccc(-c4nc5cc(C(F)(F)F)ccc5[nH]4)cn3)CC2)OC1 (racemic) |  | 179 (≈ 84.9 µg/mL) | 172 (≈ 81.6 µg/mL) | 1.52 | > 50 | > 50 | > 30 | 7.8 |  |
| O=C1OC2(CCN(c3ccc(-c4nc5cc(Cl)ccc5[nH]4)cn3)CC2)c2cnccc21 | 0.066 |  |  |  |  |  |  |  |  |
| O=C(O)CC1CCC2(CCN(c3ccc(-c4nc5cc(C(F)(F)F)ccc5[nH]4)cn3)CC2)OC1 (single isomer, unassigned; ent B) |  |  |  |  | 25.6 | 13.3 | > 30 | 1.2 |  |
| O=C(O)CC1CCOC2(CCN(c3ccc(-c4nc5cc(C(F)(F)F)ccc5[nH]4)cn3)CC2)C1 (stereo in doubt; form 2) |  |  |  |  | 35.1 | > 50 | > 30 |  | solubility [2]: 169 µM (≈ 80.2 µg/mL); solubility [3]: 174 µM (≈ 82.6 µg/mL); logD [4]: 1.47 |
| O=C(O)CC1CCC2(CC1)CCN(c1ccc(-c3nc4cc(C(F)(F)F)ccc4[nH]3)cn1)CC2 | 0.006 | < 4 | 45 (≈ 21.3 µg/mL) | 1.76 | 10.8 | 6.4 | > 30 |  |  |
| Clc1ccc2[nH]c(-c3ccc(N4CCC5(CC4)OCc4ccccc45)nc3)nc2c1 | 0.137 |  |  |  |  |  |  |  |  |
| N#Cc1ccc(N2C(=O)NC3(CCN(c4ccc(-c5nc6cc(C(F)(F)F)ccc6[nH]5)cn4)CC3)C2=O)cc1 | 0.377 |  |  |  |  |  |  |  |  |
| O=C(O)CC1CCOC2(CCN(c3ccc(-c4nc5cc(C(F)(F)F)ccc5[nH]4)cn3)CC2)C1 (stereo in doubt; form 1) |  |  |  |  | 45.2 | > 50 | > 30 |  | solubility [2]: 173 µM (≈ 82.1 µg/mL); solubility [3]: 168 µM (≈ 79.7 µg/mL); logD [4]: 1.48 |
| O=C(O)CC1CCOC2(CCN(c3ccc(-c4nc5cc(C(F)(F)F)ccc5[nH]4)cn3)CC2)C1 (racemic) |  | 185 (≈ 87.8 µg/mL) | 184 (≈ 87.3 µg/mL) | 1.43 | > 50 | > 50 | > 30 |  |  |
| O=C(O)CC1CCC2(CCN(c3ccc(-c4nc5cc(C(F)(F)F)ccc5[nH]4)cn3)CC2)OC1 (stereo in doubt) |  |  |  |  | 20.4 | 19.5 | > 30 | 0.8 |  |
| O=C(O)CC1CCC2(CCN(c3ccc(-c4nc5cc(C(F)(F)F)ccc5[nH]4)cn3)CC2)O1 (single isomer, unassigned; form 1) |  |  |  |  |  |  |  | 16 | solubility [2]: > 200 µM; solubility [3]: 190 µM (≈ 87.5 µg/mL); logD [4]: 1.52 |

Continued, in another order:

| IC50 [1] [µM] | solubility ([2]; read-out: solubility) [µM] | solubility ([3]; read-out: solubility) [µM] | logD ([4]; read-out: logD) | IC50 (Cytochrome P450 2C9) [µM] | IC50 (Cytochrome P450 3A4) [µM] | IC50 [5] [µM] | SMILES | IC50 [6] [µM] | other results |
| --- | --- | --- | --- | --- | --- | --- | --- | --- | --- |
| 0.216 |  |  |  |  |  |  | CS(=O)(=O)C1CCN(c2ccc(-c3nc4cc(C(F)(F)F)ccc4[nH]3)cn2)CC1 |  |  |
| 0.062 |  |  |  |  |  |  | FC(F)(F)c1ccc2[nH]c(-c3ccc(N4CCC(c5ccccn5)CC4)nc3)nc2c1 |  |  |
| 0.364 | 167 (≈ 76.9 µg/mL) | 154 (≈ 70.9 µg/mL) | 1.54 |  |  |  | O=C(O)C1CCC2(CCN(c3ccc(-c4nc5cc(C(F)(F)F)ccc5[nH]4)cn3)CC2)CO1 (stereo unspecified) |  |  |
|  | < 10 |  |  |  |  |  | O=C(O)c1ccc2c(c1)C(=O)OC21CCN(c2ccc(-c3nc4cc(C(F)(F)F)ccc4[nH]3)cn2)CC1 | 0.56 |  |
| 0.131 |  |  |  |  |  |  | O=S1(=O)CCC(N2CCN(c3ccc(-c4nc5cc(C(F)(F)F)ccc5[nH]4)cn3)CC2)C1 (stereo unspecified) |  |  |
|  | 170 (≈ 78.3 µg/mL) | 149 (≈ 68.6 µg/mL) | 1.55 | > 50 | > 50 | > 30 | O=C(O)CC1CCC2(CCN(c3ccc(-c4nc5cc(C(F)(F)F)ccc5[nH]4)cn3)CC2)O1 (racemic) | > 60 | CL (Rattus norvegicus): 34.2 mL/min/kg |
| 1.41 |  |  |  |  |  |  | O=C1OC2(CCN(c3ccc(-c4nc5cc(C(F)(F)F)ccc5[nH]4)cn3)CC2)CN1c1ccccc1 |  |  |
| 1.64 |  |  |  |  |  |  | FC(F)(F)c1ccc2[nH]c(-c3ccc(N4CCC(c5ccccc5)(c5ccccc5)CC4)nc3)nc2c1 |  |  |
|  | 174 (≈ 80.1 µg/mL) | 163 (≈ 75.1 µg/mL) | 1.52 | > 50 | > 50 | > 30 | O=C(O)C1CCC2(CCN(c3ccc(-c4nc5cc(C(F)(F)F)ccc5[nH]4)cn3)CC2)OC1 (stereo unspecified) | 14.7 |  |
| 0.089 |  |  |  |  |  |  | Cc1cccc(Cl)c1NC(=O)N1CCN(c2ccc(-c3nc4cc(C(F)(F)F)ccc4[nH]3)cn2)CC1 |  |  |
|  | 170 (≈ 78.3 µg/mL) | 182 (≈ 83.8 µg/mL) | 1.51 | > 50 | > 50 | > 30 | O=C(O)CC1COC2(CCN(c3ccc(-c4nc5cc(C(F)(F)F)ccc5[nH]4)cn3)CC2)C1 (racemic) |  | IC50 [9]: 0.178 µM |

Reference: ChEMBL document CHEMBL4049398, “Microscale High-Throughput Experimentation as an Enabling Technology in Drug Discovery: Application in the Discovery of (Piperidinyl)pyridinyl-1H-benzimidazole Diacylglycerol Acyltransferase 1 Inhibitors” (J Med Chem, 2017)
